Measurements as given in PubChem BioAssay (NCI).
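48-hour exposure; five concentrations; linearly interpolated endpoints. At the GI50, growth is halved. Definition used: TGI = concentration required for complete inhibition of growth.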

Tests used:
Test in all cases: NCI anticancer screen, dose series, 48 h
A549 NSCLC = test system: A549 NSCLC
BT-549 breast = test system: BT-549 breast
DU-145 prostate = test system: DU-145 prostate
EKVX NSCLC = test system: EKVX NSCLC
HCC-2998 colon = test system: HCC-2998 colon
HL-60(TB) leukemia = test system: HL-60(TB) leukemia
NCI-H522 lung = test system: NCI-H522 lung
OVCAR-8 ovarian = test system: OVCAR-8 ovarian
SF-268 CNS = test system: SF-268 CNS
SF-295 CNS = test system: SF-295 CNS
MDA-MB-435 = test system: MDA-MB-435

Structure (SMILES)	TGI (A549 NSCLC) [µM]	TGI (BT-549 breast) [µM]	TGI (DU-145 prostate) [µM]	TGI (EKVX NSCLC) [µM]	TGI (HCC-2998 colon) [µM]	TGI (HL-60(TB) leukemia) [µM]	TGI (NCI-H522 lung) [µM]	TGI (OVCAR-8 ovarian) [µM]	TGI (SF-268 CNS) [µM]	TGI (SF-295 CNS) [µM]	TGI (MDA-MB-435) [µM]	GI50 (SF-295 CNS) [µM]
CC(C)(C)N/N=C(\C(=O)NC1=C(Cl)C(=O)c2ccccc2C1=O)C1C=CCS1(=O)=O (centres undefined)	38.5	25.1	23.2	30.2	57.3	> 100	25.5	72	> 100	25.1		
CCc1c(-c2ccc(OC)cc2)oc(OC)c(C)c1=O	> 100	> 100	> 100	> 100	> 100		> 100	> 100	> 100	> 100	> 100	
C/C(=C/CC[C@]1(CO)CC[C@]2(C)[C@H](CC[C@@H]3[C@@]4(C)CC[C@H](OC5OC(CO)C(O)C(O)C5OC5OC(CO)C(O)C(O)C5O)C(C)(C)[C@@H]4CC[C@]32C)[C@H]1O)CO (some centres undefined)	> 100	> 100	> 100	> 100		> 100	> 100	> 100	> 100	> 100	> 100	
Cc1cc2nc3c(C#N)c4c(c(-c5ccc(Cl)cc5)n3c2cc1C)CCC4	> 100	41.8	44	54.4		48.3	35.4		57.9	39.8	54.8	
COC(=O)Nc1nc2ccc(S(=O)(=O)N3CCOCC3)cc2[nH]1	> 100	> 100	> 100	> 100		> 100	> 100	> 100	> 100	> 100	89.3	
NC(=O)CC(N=Cc1nc(-c2ccccc2)oc1O)C(=O)O (centres undefined)	> 100			> 100	> 100	> 100	> 100	> 100	> 100	> 100		
CC(C)(NC(=O)OCc1ccccc1)C(=O)OC(=O)C(C)(C)NC(=O)OCc1ccccc1	> 100	> 100		> 100			> 100	> 100		> 100	> 100	
NC(=S)N1N=C2c3ccccc3CC[C@H]2[C@@H]1c1ccc(Cl)cc1	> 100			> 100	> 100	61.6	35.4	> 100	> 100	> 100		
NCCN1C(=O)c2ccccc2C1c1ccc(Cl)cc1 (centres undefined)	> 100	> 100	> 100	> 100	> 100	> 100		> 100	> 100	> 100	> 100	
Cc1c2c(n(CC(c3ccccc3)c3ccccc3)c1C)NN=C(C#N)S2(=O)=O	> 100	> 100	> 100	> 100	> 100		> 100	> 100	> 100	> 100	> 100	
O=c1[nH]c(=O)n(COCc2ccccc2)cc1Nc1ccc(Br)cc1	> 100	> 100	> 100	> 100	> 100	> 100			> 100	> 100	> 100	
COc1cc(-c2c3c(cc4c2OCO4)[C@@H](Nc2ccc(-c4ccc(-c5ccc(N[C@@H]6c7cc8c(cc7C(c7cc(OC)c(O)c(OC)c7)[C@H]7C(=O)OC[C@H]67)OCO8)cc5)cc4)cc2)[C@H]2COC(=O)[C@@H]2C3)cc(OC)c1O (some centres undefined)	12.6	6.76	4.74	25.2				3.77	10.9	3.82	3.86	
CC(C)C1=CC(=O)[C@@](C)(C2[C@H](O)C[C@@]3(C)[C@@H]4CC=C5[C@@H](CC[C@@H](OC6OCC(O)C(O)C6OC6OC(C)C(O)C(O)C6O)C5(C)C)[C@]4(C)C(=O)C[C@]23C)O1 (some centres undefined)	> 100	> 100	> 100	> 100	> 100		> 100	> 100	> 100	> 100	> 100	
C[C@]12CC(c3ccccc3O1)C(C(=O)Nc1nc(C34CC5CC(CC(C5)C3)C4)cs1)C(=O)N2 (some centres undefined)	> 100	> 100	> 100	> 100	> 100	> 100		> 100	> 100		> 100	
O=C(O)/C=C/c1c[nH]c(=O)[nH]c1=O	> 500			> 500	> 500	> 500	> 500	> 500	> 500	> 232		> 158
O=c1[nH]c(NCc2ccc(Cl)cc2)nc2nc[nH]c12	> 100	> 100	> 100	> 100	> 100		> 100	> 100	> 100	> 100	> 100	
COC(=O)C1OC(O[C@H]2CC[C@]3(C)[C@H]4CC=C5[C@@H]6CC(C)(C)CC[C@]6(C(=O)OC6OCC(O)C(O)C6OC6OC(C)C(OC7OCC(O)C(O)C7O)C(OC7OCC(O)(CO)C7O)C6O)[C@H](O)C[C@@]5(C)[C@]4(C)CC[C@H]3C2(C)C)C(O)C(O)C1O (some centres undefined)	12.6	6.55	20.9	8.21	3.79		5.78	24.4	24	15.9	3.7	
COC1C(N(C)C)=C(c2ccccc2)C(=O)N2CCc3ccccc3C12 (centres undefined)	> 100		> 100	> 100		> 100	> 100	> 100	> 100	> 100	> 100	
C#CCN(Cc1ccc2nc(-c3ccccc3)c(N)nc2c1)c1cc(OC)c(OC)c(OC)c1	> 100			> 100	> 100	41.4	64.3	> 100	> 100	66		
CCn1c(CCl)nc2c1C(=O)c1ccccc1C2=O	> 100	4.09	9.02	6.44	2.9	6.85		2.95	6.65	3.54	3.12	
